pEC50: −log10 of the molar value.
How the values were obtained:
MC38 colorectal tumor = assay: Efficacy in isotype MC38 colorectal tumor mice model; format: in vivo, C57BL/6 mice
Method: The inhibition effect of the compound of Example 4 on MC38 tumor growth was evaluated in MC38 mice model.
Experimental female C57BL/6 mice were purchased from Charles River Lab (U.S.A.). The mice weighed 20-25 gram, and were 7-9 weeks old when purchased. The mice (10 mice per cage) were maintained in a constant temperature of 23+1° C., and a humidity of 50-60%, and free access to food and water. The mice were treated and used in accordance with the Institutional Animal Care and Use Committee (IACUC approved guidelines). After the animals were purchased, the test was started after 7 days of adaptive feeding.
Female C57BL/6 mice (20-25 gram, 7-9 weeks old) were used in the experiment. In vivo antitumor activity of the compound of Example 4 administered alone or the compound of Example 4 administered in combination with anti-mouse PD-1 antibody was evaluated by detecting the growth of isotype MC38 colorectal tumor (Synta Pharmaceuticals) in inbred C57BL/6 mice. 500,000 (5×10^5) MC38 cells were implanted subcutaneously in the right abdomen of each mouse. After 5 days, when the tumor grew to 40-80 mm^3, the mice were grouped randomly. The compound of Example 4 (30 mg/kg) was administered twice a day for 21 consecutive days. During the treatment experiment in which the antibody was administered alone or in combination with the compound of Example 4, anti-mouse PD-1 (CD279) antibody (BioXcell) (5 mg/kg) was intraperitoneally injected (i.p.) to the mice bearing MC38 tumor fixedly on Day 5, 8, 11 and 14. The control group was administered with the vehicle CMC-Na drug formulation and the IgG2a isotype control antibody.
The tumor volume was measured with a caliper in three dimensions, and then calculated according to the following formula: tumor volume (mm^3)=l×w×h×0.5236, wherein 1 represents the length of the tumor, w represents the width of the tumor, and h represents the height of the tumor, in millimeters. Tumor growth inhibition rate TGI %=100×(TVcontrol−TVtumor)/(TVcontrol−TVinitial), wherein TVcontrol=the tumor volume of the control group; TVtumor=the tumor volume of the treatment group; and TVinitial=the initial tumor volume on Day 5.

[1] = Pharmacokinetics assay in mice after intragastrical administration; format: in vivo; details: female, C57, mouse, plasma, po, 2 mg/kg
Method: Mice were used as test animals. The drug concentration in plasma at different time points was determined by LC/MS/MS method after intragastrical administration of the compound of Example 4 to mice. The pharmacokinetic behavior of the compound of the present invention was studied and evaluated in mice. A group of nine C57 mice (female) were purchased from Shanghai Jiesijie Laboratory Animal Co., LTD, with Certificate No.: SCXK (Shanghai) 2013-0006. A certain amount of the test compound was weighed, and added with 5% by volume of DMSO, 5% by volume of tween 80 and 90% by volume of normal saline to prepare a 0.1 mg/mL colorless, clear and transparent solution. […] The samples were stored in heparinized tubes, and centrifuged for 10 minutes at 3500 rpm to separate the blood plasma. The plasma samples were stored at −20° C. The content of the test compound in the plasma of mice after intragastrical administration of the test compound at different concentrations was determined: 25 μL of mouse plasma at each time after administration was taken, added with 80 μL of the internal standard solution of camptothecin (100 ng/mL) and 200 μL of acetonitrile, vortex-mixed for 5 minutes, and centrifuged for 10 minutes (3600 rpm). 1 μL of the supernatant was taken from the plasma samples for LC/MS/MS analysis.

IL-17A = IL-17A enzyme-linked immune quantitative assay in cytostim-activated human PBMC; format: cell-based; details: 72 h; IL-17A in supernatant of human PBMC, 3 days after drug treatment
Method: 1. Human peripheral blood mononuclear cells (PBMC) (Zenbio)
5. Human IL-17 enzyme-linked immunosorbent kit (R&D System)
Frozen human peripheral blood mononuclear cells (PBMC) were rapidly resuscitated in pre-warmed lymphocyte culture medium, and centrifuged at 1000 rpm for 10 min. The cell culture supernatant was removed. The cells were gently suspended in TexMACS medium and counted. The T cell activation reagent cytostim (10 μl/ml) was added in proportion to the cell suspension. Then, the cells were seeded in a 96-well cell culture plate at a density of 1×10^5 peripheral blood mononuclear cells/well. The test compounds were diluted in gradient with TexMACS medium, and added respectively to the test wells, with 2-3 parallel wells per group. A negative control well containing only cells without cytostim was provided to obtain the background reading. The cell culture plate was placed in a incubator at 5% carbon dioxide, 37° C. to incubate for 3 days. The cell culture supernatant was collected 3 days after drug treatment, and centrifuged to remove the suspension. Then, IL-17A in the supernatant was quantified with IL-17A enzyme-linked immunosorbent kit. EC50 values of the test compounds were calculated with GraphPad Prism 6.0.

[2] = 30 mg/kg in combination with anti-mouse PD-1 monoclonal antibody (5 mg/kg)

CCS(=O)(=O)c1ccc([C@H](CO)NC(=O)c2ccc3c(c2)cc(Cc2ccc(Cl)cc2C(F)(F)F)n3CCF)cc1 [Example 4, (R)-2-(4-Chloro-2-(trifluoromethyl)benzyl)-N-(1-(4-(ethylsulfonyl)phenyl)-2-hydroxyethyl)-1-(2-fluoroethyl)-1H-indole-5-carboxamide]
TGI (tumor growth inhibition rate) (MC38 colorectal tumor; 30 mg/kg administered alone, oral, twice a day for 21 days): 40%
Effect of combined administration with PD-1 antibody (MC38 colorectal tumor; [2]): synergistic effect
TGI (tumor growth inhibition rate) (MC38 colorectal tumor; [2]): 63%
Antitumor activity (MC38 colorectal tumor; administered alone): exhibits an antitumor activity
Vd/F ([1]; read-out: Apparent distribution volume Vz/F): 0.637 L/kg
AUC ([1]; read-out: Area under curve AUC): 50600 ng·h/mL
CL/F ([1]; read-out: Clearance CLz/F): 0.66 mL/min/kg
half-life ([1]; read-out: Half-life T1/2 (converted)): 11.2 h
Cmax ([1]; read-out: Plasma concentration Cmax): 3660 ng/mL
MRT ([1]; read-out: Residence time MRT): 15.5 h
pEC50 (IL-17A): 7.07
Emax (IL-17A): 93%

Source: patent US20200131123A1, “INDOLE-FORMAMIDE DERIVATIVE, PREPARATION METHOD THEREFOR AND USE THEREOF IN MEDICINE” (Jiangsu Hengrui Medicine Co., Ltd., priority 2017, published 2020)
